Laboratory results from US20240358717A1, “APPLICATION OF B-ECDYSTERONE IN PREPARATION OF MEDICINE FOR URIC ACID-LOWERING AND HYPERURICEMIC KIDNEY INJURY” (Institute of Chinese Materia Medica, China Academy of …, priority 2023, published 2024).

Experiments:
Type in all cases: in vivo, SD rats
rats with hyperuricemia [1] = experiment: Urate deposition in rat kidney tissues (hexamine silver staining)
Description: (§1) The establishment of the model as well as the experimental grouping and administration were the same as in Example 1. 1.2 Pathological examination of kidney tissue: anesthetize rats, dissect, and remove kidney tissue. The kidney tissues were fixed with 10% neutral formalin. After sufficient fixation, sampling, gradient dehydration, xylene transparency, paraffin embedding, and preparation of 3 μm paraffin sections were performed according to routine procedures. The kidney tissue lesions as well as urate deposition in the kidney tissues were examined by light microscopy using, HE (hematoxylin & eosin) staining and hexamine silver staining, respectively. […] Among them, A in FIG. 1 and FIG. 2 is the control group, B is the model group, C and D are both β-ecdysterone underdose group, E is β-ecdysterone low dose group, F is β-ecdysterone medium dose group, G is β-ecdysterone high dose group, H is β-ecdysterone overdose group, I is allopurinol group, and J is benzbromarone group. The length unit in the lower right corner of the figure is 50 μm.

rats with hyperuricemia [2] = experiment: Kidney function biochemical indicators (serum BUN and SCr) in rats with hyperuricemia; details: for BUN / SCr: serum, mean±SD
From the text: The establishment of the model as well as the experimental grouping and administration were the same as in Example 1.
1.1 Kidney function biochemical indicators detection: the method of blood sampling and serum collection was the same as in Example 1, and an Automatic Chemical Analysis was used to detect the content of serum creatinine (SCr) by using the creatine oxidase method, and to detect the content of blood urea nitrogen (BUN) by using the urease method and the kinetic method. the effect of β-ecdysterone on the level of blood BUN and SCr of rats with hyperuricemia is shown in Table 2.

rats with hyperuricemia [3] = experiment: Effect on blood uric acid level in rats with hyperuricemia (adenine combined with ethambutol model); details: for Blood uric acid: serum, 16 h fasting after last administration, mean±SD; for Uric acid reduction Percentage: versus model group
Description: There were 80 Male SPF grade SD rats, weighing 200-220 g, were purchased from Beijing Vital River Laboratory Animal Technology Co., Ltd., license No. SCXK (Beijing) 2016-0006. The animals were housed in a barrier environment animal laboratory, with automatic temperature control (temperature 20-26° C.), relative humidity 40-70%, and full fresh air. Artificial light was adopted with a 12-hour light-dark cycle. Group experiments were started after 1 day of acclimatization. Animals were fed with standard rat pellet feed, provided by Beijing Keao Xieli Feed Co. Ltd., with purified water.
The rats were randomly divided into 10 groups of 8 rats each:
(1) negative control group (control group); (2) model group; (3) β-ecdysterone underdose group-1, 6 mg/kg; (4) β-ecdysterone underdose group-2, 12 mg/kg; (5) β-ecdysterone low dose group 25 mg/kg; (6) β-ecdysterone medium dose group 50 mg/kg; (7) β-ecdysterone high dose group 100 mg/kg; (8) β-ecdysterone overdose group 200 mg/kg; (9) allopurinol group 25 mg/kg; (10) benzbromarone group 25 mg/kg.
1.2 Establishment of Adenine Combined with Ethambutol-Induced Hyperuricemia Combined with Kidney Injury Model in Rats
Adenine was purchased from Sigma-Aldrich (USA), and 0.5% CMC-Na (sodium carboxymethyl cellulose) solution was used to formulate a suspension at a concentration of 20 mg/mL, ready-to-use, with an administration volume of 5 mL/kg and a dosage of 100 mg/kg. Ethambutol hydrochloride tablets were purchased from Chengdu Jinhua Pharmaceutical Co., Ltd, and 0.5% CMC-Na solution was used to formulate a suspension at a concentration of 50 mg/ml, ready-to-use, with an administration volume of 5 mL/kg and a dosage of 250 mg/kg. The modeling drug adenine 100 mg/kg and ethambutol 250 mg/kg were administered by gavage in the model group and the CQ group at each dose, from day 1, and both were administered once a day for a total of 7 days, to prepare a hyperuricemia rat model. An equal amount of 0.5% CMC-Na solution was administered by gavage in the control group at the relative time.
Observation and detection indicators: fasting for 16 hours after the last administration, blood was collected from the abdominal aorta of rats in each group, centrifuged at 3500 rpm for 15 minutes after standing, separated and collected serum, and the content of uric acid in the serum was measured using an Automatic Chemical Analysis.
Statistical methods: data were expressed as mean±standard deviation and analyzed by one-way ANOVA. Each administration group was compared with the model group separately.

rats with hyperuricemia [4] = experiment: Pathological examination of rat kidney tissue (HE staining); details: for pathology of kidney tissues: HE staining; for protective effect on kidney injury combined with hyperuricemia: overall conclusion from hexamine silver staining, biochemical and pathological results
Description: as §1

Oc1ncnc2[nH]ncc12 [Allopurinol, allopurinol, reference compound]
urate crystals deposition in kidney tissue (rats with hyperuricemia [1]; positive drugs, 25 mg/kg): significantly reduced | BUN (rats with hyperuricemia [2]; 25 mg/kg): 12.17 ± 3.03 mmol/L | SCr (rats with hyperuricemia [2]; 25 mg/kg): 48.16 ± 6.95 µmol/L | serum BUN level compared with the model group (rats with hyperuricemia [2]; positive drugs, 25 mg/kg): did not show significant differences | serum SCr level compared with the model group (rats with hyperuricemia [2]; positive drugs, 25 mg/kg): did not show significant differences | Blood uric acid (rats with hyperuricemia [3]; 25 mg/kg): 109.11 ± 21.66 µmol/L | Uric acid reduction Percentage (rats with hyperuricemia [3]; 25 mg/kg): 48.90% | pathology of kidney tissues (rats with hyperuricemia [4]; 25 mg/kg): severe renal tubules dilatation, tubular wall thinning, eosinophilic degeneration, and inflammatory cell infiltration were observed | protective effect on kidney injury combined with hyperuricemia (rats with hyperuricemia [4]): did not have a significant protective effect

CCc1oc2ccccc2c1C(=O)c1cc(Br)c(O)c(Br)c1 [Benzbromarone, benzbromarone, reference compound]
urate crystals deposition in kidney tissue (rats with hyperuricemia [1]; positive drugs, 25 mg/kg): significantly reduced | BUN (rats with hyperuricemia [2]; 25 mg/kg): 10.91 ± 2.66 mmol/L | SCr (rats with hyperuricemia [2]; 25 mg/kg): 50.64 ± 7.92 µmol/L | serum BUN level compared with the model group (rats with hyperuricemia [2]; positive drugs, 25 mg/kg): did not show significant differences | serum SCr level compared with the model group (rats with hyperuricemia [2]; positive drugs, 25 mg/kg): did not show significant differences | Blood uric acid (rats with hyperuricemia [3]; 25 mg/kg): 112.53 ± 30.78 µmol/L | Uric acid reduction Percentage (rats with hyperuricemia [3]; 25 mg/kg): 44.37% | pathology of kidney tissues (rats with hyperuricemia [4]; 25 mg/kg): severe renal tubules dilatation, tubular wall thinning, eosinophilic degeneration, and inflammatory cell infiltration were observed | protective effect on kidney injury combined with hyperuricemia (rats with hyperuricemia [4]): did not have a significant protective effect

CC(C)(O)CC[C@@H](O)[C@](C)(O)[C@H]1CC[C@@]2(O)C3=CC(=O)[C@@H]4C[C@@H](O)[C@@H](O)C[C@]4(C)[C@H]3CC[C@]12C [β-ecdysterone]
urate crystals deposition in kidney tissue (rats with hyperuricemia [1]; 50 mg/kg group): most obvious effect | urate crystals deposition in kidney tissue (rats with hyperuricemia [1]; after administration, versus model group): significantly reduced | urate crystals deposition in kidney tissue (rats with hyperuricemia [1]; lower dose): no significant reduction | BUN (rats with hyperuricemia [2]; 6 mg/kg): 11.34 ± 4.11 mmol/L | SCr (rats with hyperuricemia [2]; 6 mg/kg): 51.72 ± 7.35 µmol/L | BUN (rats with hyperuricemia [2]; 12 mg/kg): 9.81 ± 3.76 mmol/L | SCr (rats with hyperuricemia [2]; 12 mg/kg): 47.56 ± 6.11 µmol/L | BUN (rats with hyperuricemia [2]; 25 mg/kg): 7.36 ± 1.71 mmol/L | SCr (rats with hyperuricemia [2]; 25 mg/kg): 40.73 ± 5.79 µmol/L | BUN (rats with hyperuricemia [2]; 50 mg/kg): 7.19 ± 1.00 mmol/L | SCr (rats with hyperuricemia [2]; 50 mg/kg): 41.30 ± 4.08 µmol/L | BUN (rats with hyperuricemia [2]; 100 mg/kg): 7.84 ± 2.04 mmol/L | SCr (rats with hyperuricemia [2]; 100 mg/kg): 42.15 ± 5.01 µmol/L | BUN (rats with hyperuricemia [2]; 200 mg/kg): 8.04 ± 3.96 mmol/L | SCr (rats with hyperuricemia [2]; 200 mg/kg): 44.30 ± 5.21 µmol/L | serum BUN level compared with the model group (rats with hyperuricemia [2]; after administration (p<0.01)): significantly reduced | serum SCr level compared with the model group (rats with hyperuricemia [2]; after administration (p<0.01)): significantly reduced | serum BUN level compared with the model group (rats with hyperuricemia [2]; dose too high): only a slight decreasing trend | serum SCr level compared with the model group (rats with hyperuricemia [2]; dose too high): only a slight decreasing trend | serum BUN level compared with the model group (rats with hyperuricemia [2]; dose too low): no significant difference | serum SCr level compared with the model group (rats with hyperuricemia [2]; dose too low): no significant difference | Blood uric acid (rats with hyperuricemia [3]; 6 mg/kg): 154.76 ± 38.71 µmol/L | Uric acid reduction Percentage (rats with hyperuricemia [3]; 6 mg/kg): 4.98% | Blood uric acid (rats with hyperuricemia [3]; 12 mg/kg): 147.55 ± 39.28 µmol/L | Uric acid reduction Percentage (rats with hyperuricemia [3]; 12 mg/kg): 10.10% | Blood uric acid (rats with hyperuricemia [3]; 25 mg/kg): 117.91 ± 43.74 µmol/L | Uric acid reduction Percentage (rats with hyperuricemia [3]; 25 mg/kg): 37.78% | Blood uric acid (rats with hyperuricemia [3]; 50 mg/kg): 110.83 ± 25.02 µmol/L | Uric acid reduction Percentage (rats with hyperuricemia [3]; 50 mg/kg): 46.58% | Blood uric acid (rats with hyperuricemia [3]; 100 mg/kg): 120.19 ± 68.99 µmol/L | Uric acid reduction Percentage (rats with hyperuricemia [3]; 100 mg/kg): 35.17% | Blood uric acid (rats with hyperuricemia [3]; 200 mg/kg): 127.56 ± 61.77 µmol/L | Uric acid reduction Percentage (rats with hyperuricemia [3]; 200 mg/kg): 27.36% | blood uric acid level compared to the model group (rats with hyperuricemia [3]; dose too low (underdose groups)): not significantly reduced | pathology of kidney tissues (rats with hyperuricemia [4]; 25 mg/kg): tubular dilatation was reduced compared with that of the model group | pathology of kidney tissues (rats with hyperuricemia [4]; high dose group 100 mg/kg): tubular dilatation was reduced compared with that of the model group | pathology of kidney tissues (rats with hyperuricemia [4]; medium dose group 50 mg/kg): tubular dilatation was significantly reduced | protective effect on kidney injury combined with hyperuricemia (rats with hyperuricemia [4]): significant protective effect | pathology of kidney tissues (rats with hyperuricemia [4]; overdose group 200 mg/kg): mild tubular dilatation and tubular epithelial cell detachment, and tubular wall thinning in some of the tubules were observed locally | pathology of kidney tissues (rats with hyperuricemia [4]; underdose group (6 and 12 mg/kg)): severe tubular expansion, epithelial cell detachment, eosinophilic degeneration and inflammatory cell infiltration could still be observed
